Measured values reported in patent US20240294542A1, “NLRP3 INFLAMMASOME INHIBITOR AND APPLICATION THEREOF” (TransThera Sciences (Nanjing), Inc., priority 2021, published 2024).

These compounds were tested on NLRP3 inflammasomes (assay: Inhibitory activity against NLRP3 inflammasome in THP-1 cells (LPS/nigericin stimulation, IL-1β ELISA)). Conditions: PMA-differentiated THP-1 cells; LPS 500 ng/mL 3 h, compound 1 h, nigericin 10 μg/mL 30 min; human IL-1β in supernatant by Elisa; read-out: IC50 (nM), inhibitory activities against NLRP3 in THP-1 cells.
Assay type: cell-based
Description: Test Samples: The compounds of the present invention prepared according to exemplary methods.
THP-1 is Immortalized Human Macrophage Cell Line
• Test instrument: microplate reader (made from PE)
• 1. […] Culture plate coating: 100 μL polylysine solution was added into a 96-well cell culture plate, and the reaction was carried out at 37° C. for 30 min. The solution was discarded, and PBS was washed twice for later use. • 3. […] The resulting mixture was uniformly mixed, and finally diluted by 1:1000 times, and the cells were placed in a carbon dioxide cell incubator at 37° C. and cultured for 1 h. • c. Nigericin was added to each well at a final concentration of 10 μg/mL, and the plate was placed in a carbon dioxide cell incubator at 37° C. and cultured for 30 min. • d. The media in wells were transferred to a new culture plate, and then the plate was centrifuged at 3000 rpm for 5 min. Then the supernatant was transferred to a new 96-well plate. • e. The collected cell culture supernatant samples were tested for the content of human IL-1β by using a commercial Elisa kit, as specified in the instructions.

In order of falling IC50:
1. Cc1cc(C#N)ccc1-c1nnc(N[C@@H]2CCCN(C)C2)c2ccccc12 [Compound 118, (R)-3-methyl-4-(4-((1-methylpiperidin-3-yl)amino)phthalazin-1-yl)benzonitrile]  23 nM
2. C[C@]1(O)C[C@@H](Nc2nnc(-c3ccc(C#N)cc3O)c3ccccc23)C1 [Compound 116, 3-hydroxy-4-(4-(((cis)-3-hydroxy-3-methylcyclobutyl)amino)phthalazin-1-yl)benzonitrile]  21 nM
3. N#Cc1ccc(-c2nnc(N[C@@H]3CCCOC3)c3ccccc23)c(O)c1 [Compound 112, (R)-3-hydroxy-4-(4-((tetrahydro-2H-pyran-3-yl)amino)phthalazin-1-yl)benzonitrile]  16 nM
4. CN1CCC[C@@H](Nc2nnc(-c3ccc(C#N)cc3O)c3ccncc23)C1 [Compound 79, (R)-3-hydroxy-4-(4-((1-methylpiperidin-3-yl)amino)pyrido[3,4-d]pyridazin-1-yl)benzonitrile]  13 nM
5. CN1CCC[C@@H](Nc2nnc(-c3ccc(C4CC4)cc3O)c3ccc(C#N)cc23)C1 [Compound 89, (R)-1-(4-cyclopropyl-2-hydroxyphenyl)-4-((1-methylpiperidin-3-yl)amino)phthalazine-6-carbonitrile]  7 nM
6. Cc1ccc2c(-c3ccc(C4CC4)cc3O)nnc(N[C@@H]3CCCN(C)C3)c2c1 [Compound 90, (R)-5-cyclopropyl-2-(6-methyl-4-((1-methylpiperidin-3-yl)amino)phthalazin-1-yl)phenol]  7 nM
7. COc1ccc(-c2nnc(N[C@@H]3CCCN(C)C3)c3ccccc23)c(O)c1 [Compound 74, (R)-5-methoxy-2-(4-((1-methylpiperidin-3-yl)amino)phthalazin-1-yl)phenol]  6 nM
8. CN1C[C@H](F)C[C@@H](Nc2nnc(-c3ccc(C#N)cc3O)c3ccccc23)C1 [Compound 123, 4-(4-(((3R,5R)-5-fluoro-1-methylpiperidin-3-yl)amino)phthalazin-1-yl)-3-hydroxybenzonitrile]  6 nM
9. CN1CCC[C@@H](Nc2nnc(-c3ccc(Cl)cc3O)c3ccccc23)C1 [Compound 101, (R)-5-chloro-2-(4-((1-methylpiperidin-3-yl)amino)phthalazin-1-yl)phenol]  5 nM
10. N#Cc1ccc(-c2nnc(N[C@@H]3CCCN(C4CCOCC4)C3)c3ccccc23)c(O)c1 [Compound 124, (R)-3-hydroxy-4-(4-((1-(tetrahydro-2H-pyran-4-yl)piperidin-3-yl)amino)phthalazin-1-yl)benzonitrile]  5 nM
11. CC(C)(O)CN1CCC[C@@H](Nc2nnc(-c3ccc(C#N)cc3O)c3ccccc23)C1 [Compound 126]  5 nM
12. N#Cc1ccc(-c2nnc(N[C@@H]3CCCN(C4CC4)C3)c3ccccc23)c(O)c1 [Compound 111, (R)-4-(4-((1-cyclopropylpiperidin-3-yl)amino)phthalazin-1-yl)-3-hydroxybenzonitrile]  4 nM
13. N#Cc1ccc(-c2nnc(N[C@@H]3CCCN(CCO)C3)c3ccccc23)c(O)c1 [Compound 127, (R)-3-hydroxy-4-(4-((1-(2-hydroxyethyl)piperidin-3-yl)amino)phthalazin-1-yl)benzonitrile]  4 nM
14. C[C@]1(O)C[C@@H](Nc2nnc(-c3ccc(C(F)(F)F)cc3O)c3ccccc23)C1 [Compound 129, 2-(4-(((cis)-3-hydroxy-3-methylcyclobutyl)amino)phthalazin-1-yl)-5-(trifluoromethyl)phenol]  4 nM
15. CC(C)N1CCC[C@@H](Nc2nnc(-c3ccc(C#N)cc3O)c3ccccc23)C1 [Compound 125, (R)-3-hydroxy-4-(4-((1-isopropylpiperidin-3-yl)amino)phthalazin-1-yl)benzonitrile]  3 nM
16. CN1CCC[C@@H](Nc2nnc(-c3ccc(C#N)cc3O)c3ccsc23)C1 [Compound 77, (R)-3-hydroxy-4-(7-((1-methylpiperidin-3-yl)amino)thieno[2,3-d]pyridazin-4-yl)benzonitrile]  2 nM
17. CN1CCC[C@@H](Nc2nnc(-c3ccc(C#N)cc3O)c3sccc23)C1 [Compound 78, (R)-3-hydroxy-4-(4-((1-methylpiperidin-3-yl)amino)thieno[2,3-d]pyridazin-7-yl)benzonitrile]  2 nM
18. CN1CCC[C@@H](Nc2nnc(-c3ccc(C(F)F)cc3O)c3ccccc23)C1 [Compound 87, (R)-5-(difluoromethyl)-2-(4-((1-methylpiperidin-3-yl)amino)phthalazin-1-yl)phenol]  2 nM
19. Cc1ccc2c(-c3ccc(Br)cc3O)nnc(N[C@@H]3CCCN(C)C3)c2c1 [Compound 88, (R)-5-bromo-2-(6-methyl-4-((1-methylpiperidin-3-yl)amino)phthalazin-1-yl)phenol]  1 nM
20. CN1CCC[C@@H](Nc2nnc(-c3ccc(C4CC4)cc3O)c3ccncc23)C1 [Compound 95, (R)-5-cyclopropyl-2-(4-((1-methylpiperidin-3-yl)amino)pyrido[3,4-d]pyridazin-1-yl)phenol]  1 nM
